# Data taken from US20250282728A1, “NITROGEN COMPRISING HETEROCYCLIC DERIVATIVES FOR THE TREATMENT OF DISORDERS ASSOCIATED WITH GPR55 RECEPTOR” (Cerevance, Inc., priority 2022, published 2025).
# Columns and labels:
# human GPR55 = target: T1, human GPR55 (Homo sapiens, UniProt Q9Y2T6); experiment: Ca2+ mobilization assay (FLIPR, Calcium5 dye), human GPR55; assay type: cell-based; conditions: HEK293 cells co-expressing PK-tagged human GPR55 and EA-tagged beta-arrestin; intracellular calcium increase
# T1 construct: expressed in transfected cells; host or cells: HEK293 (human embryonic kidney) cells
# T1 sequence (Q9Y2T6 whole entry): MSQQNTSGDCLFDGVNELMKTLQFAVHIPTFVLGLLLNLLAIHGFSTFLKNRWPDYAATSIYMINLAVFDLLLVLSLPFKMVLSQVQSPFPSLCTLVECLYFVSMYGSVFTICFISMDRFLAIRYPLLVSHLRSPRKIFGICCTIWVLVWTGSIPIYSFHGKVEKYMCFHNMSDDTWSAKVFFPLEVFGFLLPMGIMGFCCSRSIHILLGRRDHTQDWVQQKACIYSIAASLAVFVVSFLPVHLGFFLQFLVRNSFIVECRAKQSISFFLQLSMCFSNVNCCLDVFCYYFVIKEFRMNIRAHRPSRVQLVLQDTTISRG
# Method in brief: (§1)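 HEK293 cells co-expressing PK-tagged human or rat GPR55 and EA-tagged beta-arrestin were loaded with Calcium5 dye for 1 hour at 37° C in HEPES/HBSS buffer, pH 7.4, with probenecid and 0.1% BSA. Compound dilution series were added in duplicate and calcium rise followed by FLIPR fluorescence; response = maximum minus minimum.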
# rat GPR55 = target: T2, rat GPR55 (Rattus norvegicus, UniProt F1MAK4); experiment: Ca2+ mobilization assay (FLIPR, Calcium5 dye), rat GPR55; assay type: cell-based; conditions: HEK293 cells co-expressing PK-tagged rat GPR55 and EA-tagged beta-arrestin; intracellular calcium increase
# T2 construct: expressed in transfected cells; host or cells: HEK293 (human embryonic kidney) cells
# T2 sequence (F1MAK4 1-319): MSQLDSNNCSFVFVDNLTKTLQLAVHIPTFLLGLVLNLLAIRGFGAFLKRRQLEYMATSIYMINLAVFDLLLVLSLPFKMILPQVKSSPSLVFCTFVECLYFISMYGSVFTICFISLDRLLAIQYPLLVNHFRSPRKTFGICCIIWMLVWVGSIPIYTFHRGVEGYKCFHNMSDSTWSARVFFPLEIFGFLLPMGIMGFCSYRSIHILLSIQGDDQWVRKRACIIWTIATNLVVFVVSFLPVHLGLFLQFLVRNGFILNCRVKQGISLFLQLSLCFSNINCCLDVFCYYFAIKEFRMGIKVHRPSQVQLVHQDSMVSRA
# Method in brief: as §1
Structure (SMILES),EC50 (human GPR55) [nM],EC50 (rat GPR55) [nM]
"CCn1c(=O)oc2ccc(-c3cnc(N[C@H](C)c4ccc(F)cc4)nn3)cc21 [Example 67, (R)-3-ethyl-5-(3-((1-(4-fluorophenyl)ethyl)amino)-1,2,4-triazin-6-yl)benzo[d]oxazol-2(3H)-one]",≤ 200,≤ 1000
"C[C@@H](Nc1ncc(-c2cncc(S(C)(=O)=O)c2)nn1)c1ccc(F)cc1 [Example 28, (R)-N-(1-(4-fluorophenyl)ethyl)-6-(5-(methylsulfonyl)pyridin-3-yl)-1,2,4-triazin-3-amine]",≤ 50,≤ 1000
"COCn1c(=O)oc2ccc(-c3cnc(N[C@H](C)c4ccc(F)cc4)nn3)cc21 [Example 66, (R)-5-(3-((1-(4-fluorophenyl)ethyl)amino)-1,2,4-triazin-6-yl)-3-(methoxymethyl)benzo[d]oxazol-2(3H)-one]",≤ 200,≤ 1000
"C[C@@H](Nc1ncc(-c2ccc3oc(=O)n(C)c3c2)nn1)c1ccc(F)cc1F [Example 75, (R)-5-(3-((1-(2,4-difluorophenyl)ethyl)amino)-1,2,4-triazin-6-yl)-3-methylbenzo[d]oxazol-2(3H)-one]",≤ 1000,≤ 1000
"C[C@@H](Nc1ncc(-c2cnc3ncn(C)c3c2)nn1)c1ccc(F)cc1 [Example 82, (R)-N-(1-(4-fluorophenyl)ethyl)-6-(1-methyl-1H-imidazo[4,5-b]pyridin-6-yl)-1,2,4-triazin-3-amine]",≤ 1000,≤ 5000
"C[C@@H](Nc1ncc(-c2ccc3oc(=O)n(CCO)c3c2)nn1)c1ccc(F)cc1 [Example 65, (R)-5-(3-((1-(4-fluorophenyl)ethyl)amino)-1,2,4-triazin-6-yl)-3-(2-hydroxyethyl)benzo[d]oxazol-2(3H)-one]",≤ 1000,≤ 5000
"CS(=O)(=O)c1cncc(-c2cnc(N[C@@H]3CCc4ccccc43)cn2)c1 [Example 36, (R)-N-(2,3-dihydro-1H-inden-1-yl)-5-(5-(methylsulfonyl)pyridin-3-yl)pyrazin-2-amine]",≤ 200,≤ 5000
"CC(Nc1ncc(-c2ccc3oc(=O)n(C)c3c2)nn1)c1ccc(C#N)cc1 (stereo not drawn) [Example 74, 4-(1-((6-(3-methyl-2-oxo-2,3-dihydrobenzo[d]oxazol-5-yl)-1,2,4-triazin-3-yl)amino)ethyl)benzonitrile]",≤ 1000,≤ 5000
"Cc1nc(N[C@H](C)c2ccc(F)cc2)ccc1-c1cncc(S(C)(=O)=O)c1 [Example 22, (R)-N-(1-(4-fluorophenyl)ethyl)-2-methyl-5′-(methylsulfonyl)-[3,3′-bipyridin]-6-amine]",≤ 200,≤ 5000
"C[C@@H](Nc1ncc(-c2cncc(C=C(F)F)c2)nn1)c1ccc(F)cc1 [Example 40, (R)-6-(5-(2,2-difluorovinyl)pyridin-3-yl)-N-(1-(4-fluorophenyl)ethyl)-1,2,4-triazin-3-amine]",≤ 200,≤ 5000
"C[C@@H](Nc1ncc(-c2ccc3oc(=O)n(C)c3c2)nn1)c1ccc(Cl)cc1 [Example 73, (R)-5-(3-((1-(4-chlorophenyl)ethyl)amino)-1,2,4-triazin-6-yl)-3-methylbenzo[d]oxazol-2(3H)-one]",≤ 1000,≤ 5000
"C[C@@H](Nc1cnc(-c2cncc(OC(F)F)c2)cn1)c1ccc(F)cc1 [Example 39, (R)-5-(5-(difluoromethoxy)pyridin-3-yl)-N-(1-(4-fluorophenyl)ethyl)pyrazin-2-amine]",≤ 1000,≤ 1000
"C[C@@H](Nc1cnc(-c2ccc3oc(=O)n(C)c3c2)cn1)c1ccc(F)cc1 [Example 62, (R)-5-(5-((1-(4-fluorophenyl)ethyl)amino)pyrazin-2-yl)-3-methylbenzo[d]oxazol-2(3H)-one]",≤ 1000,≤ 1000
"C[C@@H](Nc1ncc(-c2ccc3oc(=O)n(CCN(C)C)c3c2)nn1)c1ccc(F)cc1 [Example 71, (R)-3-(2-(dimethylamino)ethyl)-5-(3-((1-(4-fluorophenyl)ethyl)amino)-1,2,4-triazin-6-yl)benzo[d]oxazol-2(3H)-one]",≤ 1000,≤ 5000
"CS(=O)(=O)c1cncc(-c2ccc(NC3CCc4cc(F)ccc43)nc2)c1 (stereo not drawn) [Example 38, N-(5-fluoro-2,3-dihydro-1H-inden-1-yl)-5′-(methylsulfonyl)-[3,3′-bipyridin]-6-amine]",≤ 1000,≤ 50
"C[C@@H](Nc1ncc(-c2ccc3oc(=O)[nH]c3c2)nn1)c1ccc(F)cc1 [Example 69, (R)-5-(3-((1-(4-fluorophenyl)ethyl)amino)-1,2,4-triazin-6-yl)benzo[d]oxazol-2(3H)-one]",≤ 1000,≤ 1000

# Further lines, results first:
EC50 (human GPR55) [nM],EC50 (rat GPR55) [nM],Structure (SMILES)
≤ 50,≤ 1000,"CC(Nc1cc(F)c(-c2cncc(S(C)(=O)=O)c2)cn1)c1ccc(F)cc1 (single isomer, unassigned) [Example 29a, 4-fluoro-N-(1-(4-fluorophenyl)ethyl)-5′-(methylsulfonyl)-[3,3′-bipyridin]-6-amine]"
≤ 200,≤ 200,"C[C@@H](Nc1ccc(-c2cncc(S(C)(=O)=O)c2)cn1)c1ccc(F)cc1 [Example 7, (R)-N-(1-(4-fluorophenyl)ethyl)-5′-(methylsulfonyl)-[3,3′-bipyridin]-6-amine]"
≤ 50,≤ 1000,"CCc1cncc(-c2ccc(N[C@H](C)c3ccccc3)nc2)c1 [Example 49, (R)-5′-ethyl-N-(1-phenylethyl)-[3,3′-bipyridin]-6-amine]"
≤ 1000,≤ 5000,"C[C@@H](Nc1ccc(-c2cncc(N(C)C)c2)cn1)c1ccc(F)cc1 [Example 12, (R)-N6′-(1-(4-fluorophenyl)ethyl)-N5,N5-dimethyl-[3,3′-bipyridine]-5,6′-diamine]"
≤ 50,≤ 200,"C[C@@H](Nc1cnc(-c2cncc(CCF)c2)cn1)c1ccc(F)cc1 [Example 52, (R)-5-(5-(2-fluoroethyl)pyridin-3-yl)-N-(1-(4-fluorophenyl)ethyl)pyrazin-2-amine]"
≤ 50,≤ 1000,"CCc1cncc(-c2ccc(N[C@H](C)c3cccc(F)c3)nc2)c1 [Example 48, (R)-5′-ethyl-N-(1-(3-fluorophenyl)ethyl)-[3,3′-bipyridin]-6-amine]"
≤ 1000,≤ 5000,"C[C@@H](Nc1ccc(-c2ccc3oc(=O)[nH]c3c2)cn1)c1ccc(F)cc1 [Example 59, (R)-5-(6-((1-(4-fluorophenyl)ethyl)amino)pyridin-3-yl)benzo[d]oxazol-2(3H)-one]"
≤ 1000,≤ 1000,"Cc1cncc(-c2ccc(N[C@H](C)c3ccc(F)cc3)nc2)c1C [Example 11, (R)-N-(1-(4-fluorophenyl)ethyl)-4′,5′-dimethyl-[3,3′-bipyridin]-6-amine]"
≤ 1000,≤ 5000,"C[C@@H](Nc1ccc(-c2ccc3[nH]c(=O)oc3c2)cn1)c1ccc(F)cc1 [Example 61, (R)-6-(6-((1-(4-fluorophenyl)ethyl)amino)pyridin-3-yl)benzo[d]oxazol-2(3H)-one]"
≤ 1000,≤ 1000,"Cc1cnc(C)c(-c2ccc(N[C@H](C)c3ccc(F)cc3)nc2)c1 [Example 10, (R)-N-(1-(4-fluorophenyl)ethyl)-2′,5′-dimethyl-[3,3′-bipyridin]-6-amine]"
≤ 200,≤ 50,"C[C@@H](Nc1ccc(-c2cncc(Cl)c2)cn1)c1ccc(F)cc1 [Example 9, (R)-5′-chloro-N-(1-(4-fluorophenyl)ethyl)-[3,3′-bipyridin]-6-amine]"
≤ 200,≤ 5000,"CCc1cncc(-c2ccc(N[C@@H]3CCc4ccccc43)nc2)c1 [Example 21, (R)-N-(2,3-dihydro-1H-inden-1-yl)-5′-ethyl-[3,3′-bipyridin]-6-amine]"
≤ 1000,≤ 1000,"CCc1cncc(-c2ccc(N[C@H](C)c3ccccc3F)nc2)c1 [Example 19, (R)-5′-ethyl-N-(1-(2-fluorophenyl)ethyl)-[3,3′-bipyridin]-6-amine]"
≤ 200,≤ 50,"CNCc1cncc(-c2cnc(N[C@H](C)c3ccc(F)cc3)cn2)c1 [Example 37, (R)-N-(1-(4-fluorophenyl)ethyl)-5-(5-(methylamino)methylpyridin-3-yl)pyrazin-2-amine]"
